# pIC50: −log10 of the molar value.
# Tests used:
# [1] = target: T1, JAK3 (Homo sapiens, UniProt P52333); assay: Z'-LYTE enzyme activity assay (SelectScreen Kinase Profiling), JAK3
# T1 sequence (P52333 1-1124): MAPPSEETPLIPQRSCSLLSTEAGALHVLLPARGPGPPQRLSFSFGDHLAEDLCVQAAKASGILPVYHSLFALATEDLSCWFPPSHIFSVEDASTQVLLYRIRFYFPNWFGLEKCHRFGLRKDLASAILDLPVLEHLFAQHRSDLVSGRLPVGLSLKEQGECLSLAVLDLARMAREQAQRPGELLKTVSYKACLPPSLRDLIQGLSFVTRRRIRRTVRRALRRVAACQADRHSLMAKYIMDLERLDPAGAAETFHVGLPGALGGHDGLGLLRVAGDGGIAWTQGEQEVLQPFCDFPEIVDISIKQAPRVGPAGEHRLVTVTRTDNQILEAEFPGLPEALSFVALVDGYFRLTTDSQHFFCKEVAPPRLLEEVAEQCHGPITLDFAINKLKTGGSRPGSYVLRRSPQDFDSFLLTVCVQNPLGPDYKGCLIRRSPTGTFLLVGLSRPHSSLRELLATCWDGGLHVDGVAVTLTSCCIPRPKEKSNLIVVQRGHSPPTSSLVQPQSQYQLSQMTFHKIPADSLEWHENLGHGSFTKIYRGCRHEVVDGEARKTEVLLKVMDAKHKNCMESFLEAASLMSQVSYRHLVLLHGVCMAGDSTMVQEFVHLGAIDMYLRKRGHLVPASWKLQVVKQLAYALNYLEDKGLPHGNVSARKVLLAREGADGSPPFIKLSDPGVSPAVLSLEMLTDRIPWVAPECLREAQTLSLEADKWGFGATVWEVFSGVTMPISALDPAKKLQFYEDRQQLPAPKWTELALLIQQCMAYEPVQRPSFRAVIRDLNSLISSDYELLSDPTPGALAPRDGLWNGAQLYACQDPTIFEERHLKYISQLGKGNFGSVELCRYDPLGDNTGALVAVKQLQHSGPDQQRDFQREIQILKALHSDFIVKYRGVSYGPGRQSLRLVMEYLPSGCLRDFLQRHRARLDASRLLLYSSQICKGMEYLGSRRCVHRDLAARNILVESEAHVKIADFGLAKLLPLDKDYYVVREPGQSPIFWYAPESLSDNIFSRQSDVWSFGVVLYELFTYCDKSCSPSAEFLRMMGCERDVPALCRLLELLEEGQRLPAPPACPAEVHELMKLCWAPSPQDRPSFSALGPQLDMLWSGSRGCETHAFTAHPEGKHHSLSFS
# [2] = target: TYK2 (Homo sapiens, UniProt P29597); assay: Z'-LYTE enzyme activity assay (SelectScreen Kinase Profiling), TYK2
# Sequence of TYK2 (P29597 whole entry): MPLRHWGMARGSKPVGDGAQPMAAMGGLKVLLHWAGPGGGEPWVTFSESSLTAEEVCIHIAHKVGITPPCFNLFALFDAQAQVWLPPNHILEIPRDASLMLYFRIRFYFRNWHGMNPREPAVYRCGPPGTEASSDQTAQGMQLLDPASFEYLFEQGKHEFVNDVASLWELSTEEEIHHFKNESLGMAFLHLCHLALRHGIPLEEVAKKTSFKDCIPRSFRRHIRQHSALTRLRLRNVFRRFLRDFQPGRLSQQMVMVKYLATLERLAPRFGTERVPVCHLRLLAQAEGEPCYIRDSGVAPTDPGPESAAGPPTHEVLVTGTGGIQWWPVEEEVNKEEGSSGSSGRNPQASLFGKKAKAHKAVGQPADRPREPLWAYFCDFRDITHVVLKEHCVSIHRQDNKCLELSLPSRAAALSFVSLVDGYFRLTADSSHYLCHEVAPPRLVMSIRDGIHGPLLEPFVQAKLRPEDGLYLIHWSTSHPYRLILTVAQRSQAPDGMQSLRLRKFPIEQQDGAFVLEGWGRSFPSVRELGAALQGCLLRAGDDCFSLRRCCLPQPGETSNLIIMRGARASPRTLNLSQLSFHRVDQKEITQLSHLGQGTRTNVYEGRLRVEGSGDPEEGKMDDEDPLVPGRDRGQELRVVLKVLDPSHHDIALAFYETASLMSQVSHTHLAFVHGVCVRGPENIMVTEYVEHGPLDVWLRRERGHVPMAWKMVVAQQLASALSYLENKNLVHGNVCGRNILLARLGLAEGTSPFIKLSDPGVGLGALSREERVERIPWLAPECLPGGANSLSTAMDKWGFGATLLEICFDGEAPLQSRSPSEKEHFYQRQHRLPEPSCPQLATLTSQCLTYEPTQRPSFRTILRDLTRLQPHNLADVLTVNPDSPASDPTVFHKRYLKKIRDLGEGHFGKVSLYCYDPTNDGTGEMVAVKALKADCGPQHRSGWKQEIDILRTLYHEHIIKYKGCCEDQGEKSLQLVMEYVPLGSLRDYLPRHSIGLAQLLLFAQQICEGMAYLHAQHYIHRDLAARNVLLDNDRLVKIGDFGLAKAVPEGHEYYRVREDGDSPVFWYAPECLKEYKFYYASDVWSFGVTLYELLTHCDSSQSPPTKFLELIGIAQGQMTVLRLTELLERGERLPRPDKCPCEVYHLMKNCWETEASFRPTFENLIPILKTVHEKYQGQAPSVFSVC
# [3] = target: JAK2 (Homo sapiens, UniProt O60674); assay: Z'-LYTE enzyme activity assay (SelectScreen Kinase Profiling), JAK2
# Sequence of JAK2 (O60674 whole entry): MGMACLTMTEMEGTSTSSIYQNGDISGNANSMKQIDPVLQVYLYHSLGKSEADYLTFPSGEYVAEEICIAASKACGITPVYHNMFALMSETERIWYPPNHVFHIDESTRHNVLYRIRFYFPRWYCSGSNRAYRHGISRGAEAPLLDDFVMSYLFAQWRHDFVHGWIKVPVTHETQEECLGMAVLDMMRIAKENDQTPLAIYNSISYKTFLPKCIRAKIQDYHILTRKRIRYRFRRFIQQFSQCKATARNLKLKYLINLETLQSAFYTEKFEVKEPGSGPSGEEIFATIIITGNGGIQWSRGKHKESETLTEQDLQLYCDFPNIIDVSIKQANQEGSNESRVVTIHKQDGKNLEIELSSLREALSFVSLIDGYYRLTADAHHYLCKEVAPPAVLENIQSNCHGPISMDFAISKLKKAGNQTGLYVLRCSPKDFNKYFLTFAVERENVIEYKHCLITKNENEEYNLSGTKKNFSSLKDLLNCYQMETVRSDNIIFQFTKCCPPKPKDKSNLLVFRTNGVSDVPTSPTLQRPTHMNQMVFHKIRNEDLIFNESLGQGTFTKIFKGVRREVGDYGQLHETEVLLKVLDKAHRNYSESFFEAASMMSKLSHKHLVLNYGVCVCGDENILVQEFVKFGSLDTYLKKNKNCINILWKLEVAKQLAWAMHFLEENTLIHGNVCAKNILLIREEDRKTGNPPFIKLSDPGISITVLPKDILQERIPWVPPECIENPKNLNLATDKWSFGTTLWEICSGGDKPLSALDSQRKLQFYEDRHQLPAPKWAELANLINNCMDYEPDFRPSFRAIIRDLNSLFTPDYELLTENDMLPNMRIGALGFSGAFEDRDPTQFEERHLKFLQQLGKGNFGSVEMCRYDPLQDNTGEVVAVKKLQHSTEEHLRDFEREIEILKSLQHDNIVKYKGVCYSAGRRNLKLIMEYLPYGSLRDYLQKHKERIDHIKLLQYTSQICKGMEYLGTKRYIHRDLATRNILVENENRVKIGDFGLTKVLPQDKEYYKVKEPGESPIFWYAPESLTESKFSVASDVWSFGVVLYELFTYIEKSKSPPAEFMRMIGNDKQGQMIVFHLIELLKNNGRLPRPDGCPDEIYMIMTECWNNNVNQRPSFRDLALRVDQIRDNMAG
# [4] = target: JAK1 (Homo sapiens, UniProt P23458); assay: Z'-LYTE enzyme activity assay (SelectScreen Kinase Profiling), JAK1
# Sequence of JAK1 (P23458 whole entry): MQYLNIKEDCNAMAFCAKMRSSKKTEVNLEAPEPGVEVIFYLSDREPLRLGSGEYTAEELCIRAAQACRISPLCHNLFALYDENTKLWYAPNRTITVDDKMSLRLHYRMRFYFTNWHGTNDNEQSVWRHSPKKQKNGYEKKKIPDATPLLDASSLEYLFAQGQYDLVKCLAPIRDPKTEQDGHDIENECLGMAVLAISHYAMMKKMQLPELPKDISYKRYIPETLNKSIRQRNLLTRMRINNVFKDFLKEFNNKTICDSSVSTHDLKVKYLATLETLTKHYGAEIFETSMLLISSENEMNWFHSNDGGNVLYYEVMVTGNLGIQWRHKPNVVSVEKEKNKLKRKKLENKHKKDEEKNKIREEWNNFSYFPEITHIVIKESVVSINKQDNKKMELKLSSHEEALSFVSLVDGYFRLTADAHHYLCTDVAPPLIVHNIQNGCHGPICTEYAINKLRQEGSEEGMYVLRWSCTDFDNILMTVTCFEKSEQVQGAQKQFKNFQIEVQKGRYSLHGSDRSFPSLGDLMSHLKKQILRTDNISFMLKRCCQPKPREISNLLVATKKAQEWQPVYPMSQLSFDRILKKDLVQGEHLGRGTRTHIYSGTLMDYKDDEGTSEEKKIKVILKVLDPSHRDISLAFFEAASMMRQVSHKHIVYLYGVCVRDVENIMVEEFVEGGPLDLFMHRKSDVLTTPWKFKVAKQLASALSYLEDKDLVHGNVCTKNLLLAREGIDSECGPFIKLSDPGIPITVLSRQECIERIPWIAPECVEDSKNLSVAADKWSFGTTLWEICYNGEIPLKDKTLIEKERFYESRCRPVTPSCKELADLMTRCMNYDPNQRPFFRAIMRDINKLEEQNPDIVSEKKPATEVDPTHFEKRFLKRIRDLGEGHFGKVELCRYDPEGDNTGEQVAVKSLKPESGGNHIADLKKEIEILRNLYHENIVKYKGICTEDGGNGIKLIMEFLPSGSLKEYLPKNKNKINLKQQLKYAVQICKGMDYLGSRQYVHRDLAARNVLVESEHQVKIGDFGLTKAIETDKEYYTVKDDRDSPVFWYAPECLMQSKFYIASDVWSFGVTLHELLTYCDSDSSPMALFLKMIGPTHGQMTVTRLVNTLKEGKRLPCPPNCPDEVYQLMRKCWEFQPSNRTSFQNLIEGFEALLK
# [5] = test system: CXCR3; assay: CXCR3 expression in activated primary murine T cells (flow cytometry); assay type: cell-based, B6 mice; settings: anti-CD3/CD28 activated, 3 days, dose-dependent (0.32-1000 nM)
# Description: To identify the top candidates whose effects on GvHD will be further tested in vivo, we next screened the WU derivatives by evaluating their functional inhibitory activity on the expression of CXCR3 in primary murine T cells activated by anti-CD3/CD28 beads. CXCR3 is a chemokine receptor and surrogate marker of IFNGR-JAK1/JAK2 signaling.
# Figure 3 Inhibitory effect of WU derivatives on the expression of CXCR3 compared to commercially available JAK inhibitors in primary murine T cells. Primary murine T cells were isolated from B6 mice and treated with WU derivatives or known JAK inhibitors (in the order of doses of each drug from the left: 0, 0.32, 1.6, 8, 40, 200, 1000 nM) in the presence of anti-CD3/CD28 activators. After 3 days, the expression of CXCR3 on (A) CD3, (B) CD4, and (C) CD8 T cells was determined by flow cytometry.
# T cells from in vitro primary murine T cell culture, fresh peripheral blood, or whole splenocytes were analyzed according to cell surface and intracellular markers. Surface markers were directly stained with flow antibodies for 20 min at 4 °C. For intracellular staining (FOXP3 and T-bet), cells were fixed and permeabilized after surface staining using appropriate buffers (One-step intracellular nuclear protein staining protocol, eBioscience, San Diego, CA, USA) and stained with flow antibodies. The antibodies used for flow cytometric analyses for mouse cells were as follows: FOXP3, T-BET, and CD183 (eBioscience, San Diego, CA, USA); CD3, H2-Kb, H2-Kd, CD4, B220, CD11b, CD11c, Ly6C, and DEC205 (BioLegend, San Diego, CA); and CD8, CD45.2, CD80, and Ly6G (BD Pharmingen, San Jose, CA, USA). All cells were run on a ZE5 Cell Analyzer (BD Biosciences, Mountain View, CA, USA) or Attune® NxT (Thermofisher Scientific, Waltham, MA, USA) and analyzed with the FlowJo software, version 10.9.0 (FlowJo LLC., Ashland, OR, USA). […]
smiles,measurement,setting,value
N#CCC1(n2cc(-c3ncnc4[nH]ccc34)cn2)CCS(=O)(=O)CC1 [WU8],pIC50,"[1]; IC50 JAK3, ATP at 1 mM",6.26
same,pIC50,"[1]; IC50 JAK3, ATP at app. Km",7.74
same,pIC50,"[2]; IC50 TYK2, ATP at 1 mM",7.31
same,pIC50,"[2]; IC50 TYK2, ATP at app. Km",8.55
same,pIC50,"[3]; IC50 JAK2, ATP at 1 mM",7.83
same,pIC50,"[3]; IC50 JAK2, ATP at app. Km",9.27
same,pIC50,"[4]; IC50 JAK1, ATP at 1 mM",8.15
same,pIC50,"[4]; IC50 JAK1, ATP at app. Km",8.97
same,CXCR3 expression on T cells,[5],significant reductions in CXCR3 expression
N#CCC1(n2cc(-c3ncnc4[nH]ccc34)cn2)CC2(CC(NS(=O)(=O)C(F)(F)F)C2)C1 (stereo not drawn) [WU6],pIC50,"[1]; IC50 JAK3, ATP at 1 mM",6.51
same,pIC50,"[1]; IC50 JAK3, ATP at app. Km",8.19
same,pIC50,"[2]; IC50 TYK2, ATP at 1 mM",8.19
same,pIC50,"[2]; IC50 TYK2, ATP at app. Km",9.12
same,pIC50,"[3]; IC50 JAK2, ATP at 1 mM",8.16
same,pIC50,"[3]; IC50 JAK2, ATP at app. Km",9.46
same,pIC50,"[4]; IC50 JAK1, ATP at 1 mM",8.46
same,pIC50,"[4]; IC50 JAK1, ATP at app. Km",9.22
same,CXCR3 expression on T cells,[5],significantly downregulated
CCS(=O)(=O)NC1CC2(C1)CC(CC#N)(n1cc(-c3ncnc4[nH]ccc34)cn1)C2 (stereo not drawn) [WU4],pIC50,"[1]; IC50 JAK3, ATP at 1 mM",7.08
same,pIC50,"[1]; IC50 JAK3, ATP at app. Km",8.94
same,pIC50,"[2]; IC50 TYK2, ATP at 1 mM",8.96
same,pIC50,"[2]; IC50 TYK2, ATP at app. Km",9.38
same,pIC50,"[3]; IC50 JAK2, ATP at 1 mM",8.65
same,pIC50,"[3]; IC50 JAK2, ATP at app. Km",9.88
same,pIC50,"[4]; IC50 JAK1, ATP at 1 mM",9.28
same,pIC50,"[4]; IC50 JAK1, ATP at app. Km",9.34
same,CXCR3 expression on T cells,[5],significant reductions in CXCR3 expression
